Assay results published in PubChem BioAssay (NCI).
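Growth conditions: 96-well plates. Treatment: test compound, 48 hours, 5 concentrations. Analysis: linear interpolation between bracketing concentrations; unreached endpoints set to highest concentration. TGI: concentration producing complete growth inhibition.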

How the values were obtained:
Experiment in all cases: NCI anticancer screen, dose series, 48 h
[1] = tested on: 786-0 renal
[2] = tested on: A498 renal
[3] = tested on: A549 NSCLC
[4] = tested on: ACHN renal
[5] = tested on: CAKI-1 renal
[6] = tested on: CCRF-CEM leukemia
[7] = tested on: COLO 205 colon
[8] = tested on: DLD-1 colon
[9] = tested on: DMS 114 small cell lung
[10] = tested on: DMS 273 small cell lung
[11] = tested on: EKVX NSCLC
[12] = tested on: HCC-2998 colon
[13] = tested on: HCT-116 colon
[14] = tested on: HCT-15 colon
[15] = tested on: HL-60(TB) leukemia
[16] = tested on: HOP-18 NSCLC
[17] = tested on: HOP-62 NSCLC
[18] = tested on: HOP-92 NSCLC
[19] = tested on: HT29 colon
[20] = tested on: IGROV1 ovarian
[21] = tested on: K-562 leukemia
[22] = tested on: KM12 colon
[23] = tested on: KM20L2 colon
[24] = tested on: LOX IMVI melanoma
[25] = tested on: LXFL 529 NSCLC
[26] = tested on: M14 melanoma
[27] = tested on: M19-MEL melanoma
[28] = tested on: MALME-3M melanoma
[29] = tested on: MOLT-4 leukemia
[30] = tested on: NCI-H226 lung
[31] = tested on: NCI-H23 lung
[32] = tested on: NCI-H460 lung
[33] = tested on: NCI-H522 lung
[34] = tested on: OVCAR-3 ovarian
[35] = tested on: OVCAR-4 ovarian
[36] = tested on: OVCAR-5 ovarian
[37] = tested on: OVCAR-8 ovarian
[38] = tested on: RPMI-8226 leukemia
[39] = tested on: RXF 393 renal
[40] = tested on: RXF-631 renal
[41] = tested on: SF-268 CNS
[42] = tested on: SF-295 CNS
[43] = tested on: SF-539 CNS
[44] = tested on: SK-MEL-2 melanoma
[45] = tested on: SK-MEL-28 melanoma
[46] = tested on: SK-MEL-5 melanoma
[47] = tested on: SK-OV-3 ovarian
[48] = tested on: SN12C renal
[49] = tested on: SNB-19 CNS
[50] = tested on: SNB-75 CNS
[51] = tested on: SNB-78 CNS
[52] = tested on: SW-620 colon
[53] = tested on: TK-10 renal
[54] = tested on: U251 CNS
[55] = tested on: UACC-257 melanoma
[56] = tested on: UACC-62 melanoma
[57] = tested on: UO-31 renal
[58] = tested on: XF 498 CNS

Measured: TGI

O=C1C=CC(=O)C12CCc1ccccc12
33.2 µM: [33]
97.4 µM: [16]
45.8 µM: [38]
> 31.6 µM: [5] | [42]
> 95.2 µM: [6]
> 85.1 µM: [21]
> 60.6 µM: [15]
> 100 µM: all other assays above

O=C1[C@H]2ON(c3ccccc3)C(c3ccccc3)[C@H]2C(=O)N1c1ccc(Cc2ccc(N3C(=O)[C@@H]4ON(c5ccccc5)C(c5ccccc5)[C@@H]4C3=O)cc2)cc1 (stereo partly drawn)
not listed: [11] | [13] | [27] | [33] | [37] | [49] | [53] | [58]
> 100 µM: all other assays above
